According to ChEMBL document CHEMBL3227931, “10-(Alkylamino)-4H-thieno[3,4-b][1,5]benzodiazepines. A novel class of potential neuroleptic agents” (J Med Chem, 1979):
The source made the active and inactive calls. No cut-off for these calls is given here.

Assays:
Mus musculus [1] = assay: Antidepressant activity in mouse assessed as inhibition of tetrabenazine hexamate-induced depression at 25 mg/kg, po administered 1 hr followed by tetrabenazine hexamate challenge measured after 30 mins; format: functional, organism-based; design: dose 25 mg/kg
Rattus norvegicus [2] = assay: Neuroleptic activity in po dosed rat assessed as concentration required to cause 50% reduction of motor activity; format: functional
Mus musculus [3] = assay: Neuroleptic activity in po dosed mouse assessed as inhibition of d-amphetamine sulfate-induced lethality administered for 0.5 hrs followed by d-amphetamine sulfate challenge measured after 24 hrs; format: functional
Mus musculus [4] = assay: Neuroleptic activity in mouse assessed as inhibition of d-amphetamine sulfate-induced lethality at 20 mg/kg, ip administered for 0.5 hrs followed by d-amphetamine sulfate challenge measured after 24 hrs; format: functional, organism-based; design: dose 20 mg/kg
Rattus norvegicus [5] = assay: Induction of catalepsy in po dosed rat measured for 0.5 to 18 hrs; format: organism-based; conditions: in vivo
Rattus norvegicus [6] = assay: Neuroleptic activity in rat assessed as reduction of motor activity at 50 mg/kg, ip; format: functional, organism-based; design: dose 50 mg/kg
Mus musculus [7] = assay: Antidepressant activity in po dosed mouse assessed as inhibition of tetrabenazine hexamate-induced depression administered 1 hr followed by tetrabenazine hexamate challenge measured after 30 mins; format: functional; conditions: read-out: MED

SMILES	inhibition (Mus musculus [1])	MDD50 (Rattus norvegicus [2])	ED50 (Mus musculus [3])	inhibition (Mus musculus [4])	ED50 (Rattus norvegicus [5])	Activity (Rattus norvegicus [6])	minimal effective dose (Mus musculus [7])
CC(=O)OCCN1CCN(C2=Nc3cc(Cl)ccc3N(C)c3cscc32)CC1.O=C(O)/C=C/C(=O)O	inactive	26.7 mg/kg	3.2 mg/kg	–	–	–	–
CCN1CCN(C2=Nc3ccccc3Nc3cscc32)CC1	–	6.3 mg/kg	–	–	–	–	–
Cc1cc2c(cc1C)N(C)c1cscc1C(N1CCN(C)CC1)=N2.O=C(O)/C=C/C(=O)O	inactive	58 mg/kg	–	inactive	–	–	–
CN1c2ccc(Cl)cc2N=C(N2CCN(CCO)CC2)c2cscc21.Cl	inactive	20.4 mg/kg	2 mg/kg	–	13 mg/kg	–	–
CN1CCN(C2=Nc3ccccc3N(C)c3c2csc3Cl)CC1.O=C(O)/C=C/C(=O)O	–	–	–	inactive	–	inactive	3.1 mg/kg
Cc1ccc2c(c1)Nc1cscc1C(N1CCN(C)CC1)=N2	–	9 mg/kg	5.8 mg/kg	–	–	–	–
CCN1CCN(C2=Nc3cc(Cl)ccc3N(C)c3cscc32)CC1.O=C(O)/C=C/C(=O)O	inactive	7.3 mg/kg	1.1 mg/kg	–	–	–	–
CN1CCN(C2=Nc3cc(Cl)ccc3N(C)c3cscc32)CC1.O=C(O)/C=C/C(=O)O	inactive	17 mg/kg	1.4 mg/kg	–	40 mg/kg	–	–
CN1c2ccccc2N=C(N2CCN(CCO)CC2)c2cscc21.O=C(O)/C=C/C(=O)O	–	21.3 mg/kg	–	inactive	–	–	12.5 mg/kg
CN(C)CCCN1c2ccccc2Sc2ccc(Cl)cc21 [CHLORPROMAZINE]	inactive	2 mg/kg	0.6 mg/kg	–	7 mg/kg	–	–
OCCN1CCN(C2=Nc3ccccc3Nc3cscc32)CC1	–	33.1 mg/kg	–	–	–	–	–
Cc1cc2c(cc1C)Nc1cscc1C(N1CCN(C)CC1)=N2	–	26.2 mg/kg	–	–	–	–	–
CCN1c2ccccc2N=C(N2CCN(C)CC2)c2cscc21.O=C(O)/C=C/C(=O)O	–	23 mg/kg	5.7 mg/kg	–	–	–	6.25 mg/kg
CN(C)C1=Nc2ccccc2Nc2cscc21	–	26.5 mg/kg	–	–	–	–	–
Cc1cc2c(cc1C)Nc1cscc1C(NCCN1CCCCC1)=N2	–	50 mg/kg	–	inactive	–	–	–
CN1CCN(C2=Nc3ccccc3N(C)c3cscc32)CC1.O=C(O)/C=C/C(=O)O	–	8.7 mg/kg	4.8 mg/kg	–	–	–	3.1 mg/kg
CN1CCN(C2=Nc3ccc(Cl)cc3N(C)c3cscc32)CC1	–	–	–	inactive	–	–	12.5 mg/kg

SMILES	inhibition (Mus musculus [1])	MDD50 (Rattus norvegicus [2])	ED50 (Mus musculus [3])	inhibition (Mus musculus [4])	ED50 (Rattus norvegicus [5])	Activity (Rattus norvegicus [6])	minimal effective dose (Mus musculus [7])
Cc1cc2c(cc1C)Nc1cscc1C(N1CCCCC1)=N2	–	50 mg/kg	–	inactive	–	–	–
CCCN1CCN(C2=Nc3ccccc3Nc3cscc32)CC1	–	27 mg/kg	6 mg/kg	–	–	–	–
c1ccc2c(c1)N=C(NCCN1CCCCC1)c1cscc1N2	–	37 mg/kg	–	–	–	–	–
CN(C)CCCN1c2ccccc2CCc2ccccc21 [IMIPRAMINE]	–	>50 mg/kg	> 20 mg/kg	–	–	–	12 mg/kg
COc1ccc2c(c1)Nc1cscc1C(N1CCN(C)CC1)=N2	–	16.1 mg/kg	1.1 mg/kg	–	15 mg/kg	–	–
CN1CCN(C2=Nc3ccc(Cl)cc3Nc3cscc32)CC1	–	12.3 mg/kg	–	inactive	16 mg/kg	–	–
CCN1CCN(C2=Nc3ccccc3N(C)c3cscc32)CC1.O=C(O)/C=C/C(=O)O	–	–	–	–	–	–	6.25 mg/kg
CN1CCN(C2=Nc3ccccc3N(C)c3cscc32)CC1	–	12 mg/kg	3.6 mg/kg	–	14 mg/kg	–	3.1 mg/kg
CN1CCN(C2=Nc3cc(Cl)ccc3Nc3cscc32)CC1	–	13.9 mg/kg	–	–	16 mg/kg	–	–
CCN1c2ccccc2N=C(N2CCN(CCO)CC2)c2cscc21.O=C(O)/C=C/C(=O)O	inactive	50 mg/kg	–	–	–	–	–
CN1CCN(C2=Nc3cc(Cl)c(Cl)cc3N(C)c3cscc32)CC1.O=C(O)/C=C/C(=O)O	inactive	35.9 mg/kg	8 mg/kg	–	–	–	–
CN1CCN(C2=Nc3ccccc3Nc3cscc32)CC1	–	6.1 mg/kg	6 mg/kg	–	11 mg/kg	–	–
CCCN1CCN(C2=Nc3cc(Cl)ccc3N(C)c3cscc32)CC1.O=C(O)/C=C/C(=O)O	inactive	24 mg/kg	–	inactive	–	–	–
CCN1CCN(C2=Nc3ccccc3N(CC)c3cscc32)CC1.O=C(O)/C=C/C(=O)O	–	28 mg/kg	–	–	–	–	25 mg/kg
CN1c2ccccc2N=C(N2CCNCC2)c2cscc21.O=C(O)/C=C/C(=O)O	–	–	–	inactive	–	inactive	3.1 mg/kg
CN1CCN(C2=Nc3cc(Cl)ccc3Nc3ccccc32)CC1 [CLOZAPINE]	inactive	21 mg/kg	2 mg/kg	–	76 mg/kg	–	–
